How the values were obtained:
MCP2201 [1] = biological target: T1, MCP2201 (Comamonas thiooxydans, UniProt A0ABF7PFR0, T108A); assay: ITC; format: binding
T1 construct: gene CtCNB1_2201; MCP2201-LBD (residues 58–203), isolated periplasmic domain

MCP2201 [2] = biological target: T2, MCP2201 (Comamonas thiooxydans, UniProt A0ABF7PFR0); assay: ITC; crystal structure at […] Å; analytical ultracentrifugation; format: binding
T2 construct: gene CtCNB1_2201; MCP2201-LBD (residues 58–203), N-terminal His6-tag
T2 sequence (A0ABF7PFR0 58-203): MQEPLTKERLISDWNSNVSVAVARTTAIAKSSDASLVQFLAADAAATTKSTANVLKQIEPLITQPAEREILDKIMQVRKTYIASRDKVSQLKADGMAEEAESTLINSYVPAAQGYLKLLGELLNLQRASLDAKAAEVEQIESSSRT

Question: How did the Kd (MCP2201 [1]) turn out when `O=C(O)C[C@H](O)C(=O)O` [L-malate] was run?
Answer: 995 ± 438 µM

Question: What about the Kd (MCP2201 [2]) of the same compound?
Answer: 18.8 ± 7.45 µM
